Where a name gives a salt, the structure may show the parent alone. Read-outs that look alike come from different tables or passages of the source.
How the values were obtained:
[1] = molecular target: sphingosine kinase 1 (SK1) (Homo sapiens, UniProt Q9NYA1); test: In vitro inhibition of purified recombinant sphingosine kinase 1; type: biochemical; conditions: purified recombinant enzyme
MCF7 cells = test: Endogenous ceramide level in cells after treatment; type: cell-based, human; conditions: 24 hour treatment, 0-25 μM, FIG. 7
From the text: The administration of guanidino-sphingosines to mammalian cells at concentrations capable of inhibiting SK1 or SK2 were also found to increase the level of endogenous Cer in the cells.

[2] = molecular target: T1, sphingosine kinase 2 (SK2) (Homo sapiens, UniProt Q9NRA0); test: In vitro inhibition of purified recombinant sphingosine kinase 2; type: biochemical; conditions: purified recombinant enzyme
T1 sequence (Q9NRA0 1-654): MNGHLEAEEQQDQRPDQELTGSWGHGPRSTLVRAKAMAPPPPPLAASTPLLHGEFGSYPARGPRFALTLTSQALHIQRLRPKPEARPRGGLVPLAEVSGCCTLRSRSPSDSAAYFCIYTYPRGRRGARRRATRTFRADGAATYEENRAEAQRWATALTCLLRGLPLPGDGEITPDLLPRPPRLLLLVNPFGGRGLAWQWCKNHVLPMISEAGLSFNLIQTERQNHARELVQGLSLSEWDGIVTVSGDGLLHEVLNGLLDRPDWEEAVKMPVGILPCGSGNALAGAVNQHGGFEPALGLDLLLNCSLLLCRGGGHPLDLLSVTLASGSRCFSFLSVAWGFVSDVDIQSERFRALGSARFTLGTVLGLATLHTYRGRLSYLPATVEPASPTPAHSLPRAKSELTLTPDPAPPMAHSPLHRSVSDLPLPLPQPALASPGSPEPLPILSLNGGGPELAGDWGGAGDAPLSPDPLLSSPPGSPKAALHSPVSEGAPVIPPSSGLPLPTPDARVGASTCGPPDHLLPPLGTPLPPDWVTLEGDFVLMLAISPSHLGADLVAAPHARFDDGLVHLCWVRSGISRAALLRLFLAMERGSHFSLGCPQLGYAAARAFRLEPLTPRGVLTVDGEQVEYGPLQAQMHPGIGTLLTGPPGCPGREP

[3] = test system: prostate cancer (DU145) cells over-expressing acid ceramidase; test: BD FALCON FLUOROBLOK migration assay; type: cell-based, human; conditions: 5 μM pretreatment overnight; 16/24 hours incubation; FIG. 8
Experimental: NT represents non-treated cells.
The presently disclosed guanidino-sphingosines were determined to be capable of inhibiting cell migration of cancer cells overexpressing acid ceramidase. The BD™ FALCON™ (Becton Dickinson and Company, Franklin Lakes, N.J., United States of America) migration assay (using FLUOROBLOK™ polyethylene terphthalate (PET) inserts (8.0 μm)) was performed with prostate cancer (DU145) cells over-expressing acid ceramidase. […] After labeling the cells with carboxyfluorescein diacetate succinimidyl ester fluorscent dye (CFMDA), the cells were seeded on the top well of BDTM FLUOROBLOK™ PET membrane collagen-coated inserts. The negative control consisted of serum free media loaded in the bottom well and 10% FCS-enriched media was used as the positive control. After 16/24 hours incubation, the plate was read from the bottom (485/530 nm) and fluorescence was quantified.

sphingosine kinase 1 (SK1), sequence (Q9NYA1 whole entry, species assumed): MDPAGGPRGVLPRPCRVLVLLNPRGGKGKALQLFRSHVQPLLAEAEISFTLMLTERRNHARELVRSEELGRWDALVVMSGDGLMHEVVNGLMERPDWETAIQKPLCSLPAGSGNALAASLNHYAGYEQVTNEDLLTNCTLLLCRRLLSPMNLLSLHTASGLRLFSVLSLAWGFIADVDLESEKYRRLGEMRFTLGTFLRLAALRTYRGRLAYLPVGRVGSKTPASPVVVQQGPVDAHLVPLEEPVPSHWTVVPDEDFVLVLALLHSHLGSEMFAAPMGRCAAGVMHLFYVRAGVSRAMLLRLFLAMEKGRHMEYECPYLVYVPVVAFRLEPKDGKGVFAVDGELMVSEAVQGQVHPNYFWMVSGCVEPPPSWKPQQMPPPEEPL

SMILES | IC50 ([1]; read-out: In Vitro IC50 on Sphingosine Kinase 1) | endogenous C16-ceramide levels (MCF7 cells) | IC50 [2] | IC50 ([1]; read-out: IC50 on SK1) | migration rate of DU145 cells [3]
CCCCCCCCCCCCC/C=C/[C@@H](O)[C@H](CO)NC(=N)N [LCL146, D-erythro-2-N-(1′-carboxamidino)-sphingosine hydrochloride] | 420 nM | elevation | 740 nM |  | 
CCCCCCCCCCCCC/C=C/[C@H](O)[C@@H](CO)NC(=N)N [LCL351, L-erythro-2-N-(1′-carboxamidino)-sphingosine hydrochloride] |  | elevation | 300 nM | 40 nM | decreases the migration rate

Reference: patent publication US20120035268A1, “SPHINGO-GUANIDINES AND THEIR USE AS INHIBITORS OF SPHINGOSINE KINASE” (priority 2008, published 2012)
